Test results: PubChem BioAssay AID1963974 (Molecular Pharmacology Branch, DTP, NCI, 2024)

Test system: 648629-189-R-J1-PDC spheroids with HUVEC/MSC, viability
Assay: Anticancer human tumor 648629-189-R-J1-PDC patient-derived bladder carcinoma cell line growth inhibition [PI3K]
Conditions: for IC50: curve of first compound; for viability, T/C: stronger effect = lower value
Procedure, shortened: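 Three cell types, namely tumor cells, endothelial cells and mesenchymal stem cells, formed each spheroid. Combinations with four PI3K inhibitors were screened at clinically achievable concentrations decreasing by half-log, and spheroid viability was recorded.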

[1] = second compound 0.0316 µM, first compound 0.0316 µM
[2] = second compound 0.0316 µM, first compound 0.1 µM
[3] = second compound 0.0316 µM, first compound 0.316 µM
[4] = second compound 0.0316 µM, first compound 1 µM
[5] = second compound 0.0316 µM, first compound 3.16 µM
[6] = second compound 0.0316 µM, first compound 10 µM
[7] = second compound 0.1 µM, first compound 0.0316 µM
[8] = second compound 0.1 µM, first compound 0.1 µM
[9] = second compound 0.1 µM, first compound 0.316 µM
[10] = second compound 0.1 µM, first compound 1 µM
[11] = second compound 0.1 µM, first compound 3.16 µM
[12] = second compound 0.1 µM, first compound 10 µM
[13] = second compound 0.316 µM, first compound 0.0316 µM
[14] = second compound 0.316 µM, first compound 0.1 µM
[15] = second compound 0.316 µM, first compound 0.316 µM
[16] = second compound 0.316 µM, first compound 1 µM
[17] = second compound 0.316 µM, first compound 3.16 µM
[18] = second compound 0.316 µM, first compound 10 µM
[19] = second compound 1 µM, first compound 0.0316 µM
[20] = second compound 1 µM, first compound 0.1 µM
[21] = second compound 1 µM, first compound 0.316 µM
[22] = second compound 1 µM, first compound 1 µM
[23] = second compound 1 µM, first compound 3.16 µM
[24] = second compound 1 µM, first compound 10 µM
[25] = second compound 3.16 µM, first compound 0.0316 µM
[26] = second compound 3.16 µM, first compound 0.1 µM
[27] = second compound 3.16 µM, first compound 0.316 µM
[28] = second compound 3.16 µM, first compound 1 µM
[29] = second compound 3.16 µM, first compound 3.16 µM
[30] = second compound 3.16 µM, first compound 10 µM
[31] = second compound 10 µM, first compound 0.0316 µM
[32] = second compound 10 µM, first compound 0.1 µM
[33] = second compound 10 µM, first compound 0.316 µM
[34] = second compound 10 µM, first compound 1 µM
[35] = second compound 10 µM, first compound 3.16 µM
[36] = second compound 10 µM, first compound 10 µM
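Note: spheroids exposed to agents for seven days before reading.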
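Throughout, for viability, T/C: percent of vehicle control luminescence where 100% = DMSO treated spheroids.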

## CCCS(=O)(=O)Nc1ccc(F)c(C(=O)c2c[nH]c3ncc(-c4ccc(Cl)cc4)cc23)c1F + CC(Nc1ncnc2nc[nH]c12)c1cc2cccc(Cl)c2c(=O)n1-c1ccccc1
Second compound 0.0316 µM
  IC50: 5.23 µM
Second compound 0.1 µM
  IC50: 5.59 µM
Second compound 0.316 µM
  IC50: 5.27 µM
Second compound 1 µM
  IC50: 5.26 µM
Second compound 3.16 µM
  IC50: 4.28 µM
Second compound 10 µM
  IC50: 3.88 µM
[1]
  viability, T/C: 99.8%
[2]
  viability, T/C: 95.1%
[3]
  viability, T/C: 120%
[4]
  viability, T/C: 98.3%
[5]
  viability, T/C: 88.2%
[6]
  viability, T/C: 0.98%
[7]
  viability, T/C: 103%
[8]
  viability, T/C: 96.7%
[9]
  viability, T/C: 91.8%
[10]
  viability, T/C: 98.9%
[11]
  viability, T/C: 100%
[12]
  viability, T/C: 0.84%
[13]
  viability, T/C: 109%
[14]
  viability, T/C: 108%
[15]
  viability, T/C: 99.2%
[16]
  viability, T/C: 109%
[17]
  viability, T/C: 89.4%
[18]
  viability, T/C: 0.43%
[19]
  viability, T/C: 101%
[20]
  viability, T/C: 88.7%
[21]
  viability, T/C: 96.2%
[22]
  viability, T/C: 99.2%
[23]
  viability, T/C: 89.1%
[24]
  viability, T/C: 0.46%
[25]
  viability, T/C: 91.1%
[26]
  viability, T/C: 103%
[27]
  viability, T/C: 92.2%
[28]
  viability, T/C: 89.5%
[29]
  viability, T/C: 67.6%
[30]
  viability, T/C: 0.83%
[31]
  viability, T/C: 86.9%
[32]
  viability, T/C: 77.6%
[33]
  viability, T/C: 81.9%
[34]
  viability, T/C: 80.2%
[35]
  viability, T/C: 60.6%
[36]
  viability, T/C: 1.35%

## C[C@@H](NC(=O)c1ncnc(N)c1Cl)c1ncc(C(=O)Nc2cc(C(F)(F)F)c(Cl)cn2)s1 + CC(Nc1ncnc2nc[nH]c12)c1cc2cccc(Cl)c2c(=O)n1-c1ccccc1
Second compound 0.0316 µM
  IC50: > 10 µM
Second compound 0.1 µM
  IC50: > 10 µM
Second compound 0.316 µM
  IC50: > 10 µM
Second compound 1 µM
  IC50: > 10 µM
Second compound 3.16 µM
  IC50: > 10 µM
Second compound 10 µM
  IC50: > 10 µM
[1]
  viability, T/C: 98.8%
[2]
  viability, T/C: 104%
[3]
  viability, T/C: 111%
[4]
  viability, T/C: 108%
[5]
  viability, T/C: 118%
[6]
  viability, T/C: 130%
[7]
  viability, T/C: 113%
[8]
  viability, T/C: 97.2%
[9]
  viability, T/C: 112%
[10]
  viability, T/C: 109%
[11]
  viability, T/C: 112%
[12]
  viability, T/C: 113%
[13]
  viability, T/C: 105%
[14]
  viability, T/C: 110%
[15]
  viability, T/C: 102%
[16]
  viability, T/C: 118%
[17]
  viability, T/C: 112%
[18]
  viability, T/C: 115%
[19]
  viability, T/C: 115%
[20]
  viability, T/C: 89%
[21]
  viability, T/C: 113%
[22]
  viability, T/C: 114%
[23]
  viability, T/C: 113%
[24]
  viability, T/C: 116%
[25]
  viability, T/C: 112%
[26]
  viability, T/C: 98.5%
[27]
  viability, T/C: 98.3%
[28]
  viability, T/C: 104%
[29]
  viability, T/C: 107%
[30]
  viability, T/C: 104%
[31]
  viability, T/C: 103%
[32]
  viability, T/C: 81%
[33]
  viability, T/C: 78.8%
[34]
  viability, T/C: 86.5%
[35]
  viability, T/C: 91.8%
[36]
  viability, T/C: 85.1%

## Cn1ncnc1[C@H]1c2n[nH]c(=O)c3cc(F)cc(c23)N[C@@H]1c1ccc(F)cc1 + CC(Nc1ncnc2nc[nH]c12)c1cc2cccc(Cl)c2c(=O)n1-c1ccccc1
Second compound 0.0316 µM
  IC50: > 0.1 µM
Second compound 0.1 µM
  IC50: > 0.1 µM
Second compound 0.316 µM
  IC50: > 0.1 µM
Second compound 1 µM
  IC50: > 0.1 µM
Second compound 3.16 µM
  IC50: > 0.1 µM
Second compound 10 µM
  IC50: > 0.1 µM
Second compound 0.0316 µM, first compound 0.000316 µM
  viability, T/C: 99.8%
Second compound 0.0316 µM, first compound 0.001 µM
  viability, T/C: 100%
Second compound 0.0316 µM, first compound 0.00316 µM
  viability, T/C: 99.8%
Second compound 0.0316 µM, first compound 0.01 µM
  viability, T/C: 88.1%
[1]
  viability, T/C: 67.2%
[2]
  viability, T/C: 71%
Second compound 0.1 µM, first compound 0.000316 µM
  viability, T/C: 97.8%
Second compound 0.1 µM, first compound 0.001 µM
  viability, T/C: 101%
Second compound 0.1 µM, first compound 0.00316 µM
  viability, T/C: 98.2%
Second compound 0.1 µM, first compound 0.01 µM
  viability, T/C: 81.2%
[7]
  viability, T/C: 93.2%
[8]
  viability, T/C: 66.7%
Second compound 0.316 µM, first compound 0.000316 µM
  viability, T/C: 94.2%
Second compound 0.316 µM, first compound 0.001 µM
  viability, T/C: 98.2%
Second compound 0.316 µM, first compound 0.00316 µM
  viability, T/C: 91.9%
Second compound 0.316 µM, first compound 0.01 µM
  viability, T/C: 92%
[13]
  viability, T/C: 85.4%
[14]
  viability, T/C: 59.1%
Second compound 1 µM, first compound 0.000316 µM
  viability, T/C: 111%
Second compound 1 µM, first compound 0.001 µM
  viability, T/C: 100%
Second compound 1 µM, first compound 0.00316 µM
  viability, T/C: 97.8%
Second compound 1 µM, first compound 0.01 µM
  viability, T/C: 82.3%
[19]
  viability, T/C: 74.4%
[20]
  viability, T/C: 65.1%
Second compound 3.16 µM, first compound 0.000316 µM
  viability, T/C: 96.4%
Second compound 3.16 µM, first compound 0.001 µM
  viability, T/C: 89.6%
Second compound 3.16 µM, first compound 0.00316 µM
  viability, T/C: 88.7%
Second compound 3.16 µM, first compound 0.01 µM
  viability, T/C: 86.5%
[25]
  viability, T/C: 81.6%
[26]
  viability, T/C: 58.9%
Second compound 10 µM, first compound 0.000316 µM
  viability, T/C: 90.4%
Second compound 10 µM, first compound 0.001 µM
  viability, T/C: 86.7%
Second compound 10 µM, first compound 0.00316 µM
  viability, T/C: 80.7%
Second compound 10 µM, first compound 0.01 µM
  viability, T/C: 80.7%
[31]
  viability, T/C: 71.1%
[32]
  viability, T/C: 55.9%
